Experimental data published in patent US9862746B2, “Compositions and methods relating to hindering DOT1L recruitment by MLL-fusion proteins” (The Regents of the University of Michigan, priority 2013, dated 2018).
Where two headings read alike, the source gives them in different places.

Experiments:
H3K79 methylation = test: Global H3K79 methylation in MLL-AF9 transformed cells; assay type: cell-based, mouse; settings: 6 days treatment of MLL-AF9 transformed cells
Excerpt: (§1) FIG. 23 presents cell growth curves of A) MLL-AF9 and B) Hoxa9/Meis1 transformed mouse cells and C) adult LSKs after treatment with 38. D) H3K79 methylation after 6 days treatment with 38 and EPZ004777 DOT1L inhibitor (see, e.g., Daigle, et al., Cancer Cell 20, 53-65 (2011)).
(§2) This example involves the assessment of cellular effects of compound 38. […] Compound 38 inhibited growth of MLL-AF9 cells in a dose-dependent manner (FIG. 23A), with cell growth inhibition starting after 4 days of treatment. […] The hypothesis predicts that compounds that can block the DOT1L recruitment, but not its catalytic activity, will not affect normal hematopoiesis, as well as the global level of H3K79 methylation. To test this hypothesis, the toxicity of compound 38 was tested on purified LSK (lin-sca-1+ckit+) progenitors from adult wild type mice (FIG. 23C).

ENL = molecular target: T1, ENL (Homo sapiens, UniProt Q03111); test: SPR competitive binding assay of small molecules, ENL; settings: SPR competitive based assay; read-out: ENL IC50 ± SD
T1 construct: against AF9(497-568) and ENL (489-559) proteins running different tested concentrations over CM5 chip; MBP (pMSCG9-LIC vector); made in house; host or cells: Escherichia coli BL21 (DE3)
T1 sequence (Q03111 489-559): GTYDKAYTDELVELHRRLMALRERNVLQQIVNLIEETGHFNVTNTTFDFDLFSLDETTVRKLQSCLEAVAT
Excerpt: (§3) To further validate the binding of the confirmed compounds and identify potential promiscuous inhibitors, several secondary assays have been developed to support hit confirmation and the hit-to-probe optimization process. In order to determine that the compounds bind effectively to the target and disrupt protein-protein interaction, a SPR competitive binding assay was used. This assay uses a platform that differs from the FP-based assay where DOT1L recombinant protein (residues […]) is immobilized on a CM5 chip, allowing for testing of the inhibitors for their ability to disrupt AF9-DOT1L protein-protein interactions.
This class of compounds was also tested for their binding against ENL protein, which is highly homologous with AF9.

[1] = system: HM2 cells stably expressing Hoxa9 and Meis 1; test: Cell growth of HM2 (Hoxa9/Meis1) cells; assay type: cell-based, mouse
Excerpt: as §1, §2

[2] = system: LSK (lin-sca-1+ckit+) progenitors; test: Toxicity on purified adult LSK progenitors; assay type: cell-based, mouse; settings: 50 μM and 25 μM, up to seven days in culture
Excerpt: as §1, §2

AF9 [3] = molecular target: T2, AF9 (Homo sapiens, UniProt P42568); test: OctetRed Bio-Layer Interferometry binding to immobilized AF9; settings: OctetRed BLI
T2 sequence (P42568 1-568): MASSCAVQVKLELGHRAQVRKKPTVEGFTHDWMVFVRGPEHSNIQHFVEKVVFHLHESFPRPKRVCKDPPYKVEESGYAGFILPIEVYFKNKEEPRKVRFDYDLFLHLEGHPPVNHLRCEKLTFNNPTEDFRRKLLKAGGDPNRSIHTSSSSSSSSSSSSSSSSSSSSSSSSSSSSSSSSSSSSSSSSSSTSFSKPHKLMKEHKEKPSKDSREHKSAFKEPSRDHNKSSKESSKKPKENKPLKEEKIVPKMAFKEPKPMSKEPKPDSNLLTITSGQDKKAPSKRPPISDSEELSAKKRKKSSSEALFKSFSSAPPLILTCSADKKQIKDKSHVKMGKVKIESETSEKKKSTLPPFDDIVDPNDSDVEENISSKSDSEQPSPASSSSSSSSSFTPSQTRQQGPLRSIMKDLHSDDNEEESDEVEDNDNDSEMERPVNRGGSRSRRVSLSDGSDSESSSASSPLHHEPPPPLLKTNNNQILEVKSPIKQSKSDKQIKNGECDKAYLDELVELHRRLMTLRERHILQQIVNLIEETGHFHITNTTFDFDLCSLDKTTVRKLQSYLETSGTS
Method: (§4) C) Globally fitted concentration series of 38 (100, 50, 25, 12.5 and 6.25 μM) binding to immobilized AF9 using OctetRed System (see Example 12).
Finally, an orthogonal measure of the disruption of the DOT1L/AF9 protein interaction was obtained using OctetRed system with Bio-Layer Interferometry (BLI) technology. This technology is allowing label-free, real-time biomolecular analysis and determination of binding kinetics and affinity. […] Using global fitting of the binding data in several tested concentrations, the kinetic parameters were calculated. The observed KD values ranged from 10 μM to 50 μM, consistent with the KD from steady state calculations.

MBP-AF9 = molecular target: T3, MBP-AF9 (Homo sapiens, UniProt P42568); test: ThermoFluor binding assay, MBP-AF9
T3 sequence (P42568 497-568): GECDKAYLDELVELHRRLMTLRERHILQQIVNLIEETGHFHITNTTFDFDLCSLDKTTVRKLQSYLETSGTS
Method: as §4
(§5) To provide further validation of the hit selection in addition to the biochemical assays Saturation Transfer Difference (STD), NMR spectroscopy was used. NMR spectroscopy has been successfully utilized to detect and characterize the direct binding of small-molecule compounds to large biomolecules. This technique is also allowing characterization of the binding interactions and maps the ligand-protein contacts in the bound state, delineating which chemical moieties of the ligand molecule are key for molecular recognition by the protein (group epitope mapping, FIG. 20A). […] The direct binding of 38 was also confirmed with ThermoFluor biophysical binding assay. ThermoFluor exploits a well-known biophysical phenomenon where small changes in the intrinsic melting temperature of proteins in the presence of ligands are related to the equilibrium-binding constant. Compounds that interact with the native form of the protein will shift the equilibrium to the left, increasing the Tm, the temperature at which half the protein is unfolded. In the presence of compound 38, the Tm of MBP-AF9 protein increases in a dose-dependent manner, giving ΔTm of 1.2 degree in […] (FIG. 20B).

[4] = system: MLL-AF9 transformed mouse cells; test: Cell growth of MLL-AF9 transformed mouse cells; assay type: cell-based; settings: 216 h
Excerpt: as §1, §2

AF9 [5] = molecular target: T2, AF9; test: Saturation Transfer Difference (STD) NMR; assay type: binding
Method: as §4, §5

MBP tag = MBP tag (Escherichia coli, UniProt P0AEX9); test: ThermoFluor binding assay, MBP tag only
AF9 [6] = molecular target: T4, AF9 (Homo sapiens, UniProt P42568); test: SPR competitive binding assay of small molecules, AF9-DOT1L; parameters: against AF9(497-568) and ENL (489-559) proteins running different tested concentrations over CM5 chip; GB1 (pGB1-LIC vector); made in house; host or cells: Escherichia coli BL21 (DE3); settings: SPR competitive based assay; read-out: AF9 IC50 ± SD
T4 sequence (P42568 497-568): T3 sequence (P42568 497-568)
Excerpt: Several secondary assays have already been developed to support hit confirmation and the hit-to-probe optimization process. The established and optimized SPR-based competitive assay utilizing DOT1L protein (826-1095) immobilized on the CM5 sensor chip was used as a secondary counter screen assay to validate binding of compounds to AF9. […] Both assays gave similar IC50 values.
as §3

`CCc1ccc(S(=O)(=O)N2c3ccccc3NC3=C(C(=O)CCC3)C2c2ccco2)cc1` (racemic) [Compound 38] was tested, and the “global H3K79 methylation level” value (H3K79 methylation) was “not affected”, the IC50 (ENL) was 30.7 ± 7.7 µM and the “cell growth of HM2 cells” value [1] was “not affected”. For the same molecule, the “toxicity / growth inhibition of adult LSKs” value [2] was “not toxic to normal hematopoiesis”, the Kd (AF9 [3]; several tested concentrations, read-out: KD values, global fitting of binding data) was 10 to 50 µM and the Kd (AF9 [3]; read-out: binding affinity (KD), steady state analysis) was 35 µM. For the same molecule, the “ΔTm of MBP-AF9 protein” value (MBP-AF9) was 1.2 degree, the inhibition at 25 µM ([4]; day 9, 25 μM) was 50% and the inhibition at 50 µM ([4]; day 9, 50 μM) was about 90%. The “STD effects (direct binding to AF9)” value (AF9 [5]) was “strong STD effects”, the “thermal stability of tag MBP only” value (MBP tag) was “did not show any changes in thermal stability” and the IC50 (AF9 [6]) was 40 ± 1.5 µM.
